{
  "source": "patent US20130253449A1",
  "about": "“NORADRENERGIC AND SPECIFIC SEROTONERGIC ANTIDEPRESSANT-CONTAINING TRANSDERMAL PATCH” (priority 2010, published 2013)",
  "key": {"[1]": {"test_system": "brain monoamine (NA, DA and 5-HT)", "test": "Measurement of brain monoamine level (microdialysis, prefrontal region) during 12-hour mirtazapine administration", "assay_type": "in vivo, rat", "experimental": "Rats (male, body weight: 200 to 300 g, n=5) were anesthetized by inhalation of isoflurane, and then a cannula for long-term continuous administration was buried under the skin of each rat and a guide (microdialysis) was in the prefrontal region thereof. In 5 to 7 days after the guide insertion, a probe for measurement of monoamine in the brain was inserted into the prefrontal region, and via the microsyringe pump connected to the probe, a perfusate was perfused at a flow rate of 0.5 μL/min. For mirtazapine administration, a mirtazapine 3 mg/mL/kg solution was administered in a predetermined dose via the microsyringe pump, taking 12 hours. A Ringer' s solution was used as the perfusate, which was collected at intervals of 1 hour using a fraction collector.\n(§1) Monoamine was measured from the perfusate collected by the fraction collector, and mirtazapine was measured from the plasma sample through HPLC."}, "[2]": {"test": "Measurement of plasma mirtazapine level during 12-hour mirtazapine administration", "assay_type": "in vivo", "conditions": "rat, subcutaneous, 6 hours after start of administration, 3 mg/mL/kg over 12 hours, read-out: mean concentration of mirtazapine in rat plasma (mean±SEM)", "experimental": "Next, at the same dose mode and through the same administration route as above, mirtazapine (3 mg/mL/kg) was administered in a predetermined dose, taking 12 hours, and in 6 hours after the start, the blood was collected. The time at which the administration was started was referred to as the test start time. Heparin was added to the collected blood and then centrifuged, and the thus-separated plasma was the sample.\nas §1"}, "[3]": {"conditions": "18 hours after start of administration, mirtazapine 3 mg/mL/kg solution over 12 hours"}},
  "data": [
    {"compound": "CN1CCN2c3ncccc3Cc3ccccc3C2C1", "note": "(stereo not shown) [mirtazapine]", "values": [
      {"measurement": "NA and DA in rat prefrontal region", "setting": "[1]; 1 hour after start of mirtazapine administration", "value": "increase in NA and DA was admitted"},
      {"measurement": "NA level in rat prefrontal region (mean±SEM)", "setting": "[1]; 7 hours after start of administration, mirtazapine 3 mg/mL/kg solution over 12 hours, n=5", "value": "184.7±17.3", "unit": "%"},
      {"measurement": "DA level in rat prefrontal region", "setting": "[1]; 8 hours after start of administration, mirtazapine 3 mg/mL/kg solution over 12 hours, n=5", "value": "222.1±38.5", "unit": "%"},
      {"measurement": "DA level in rat prefrontal region", "setting": "[1]; [3]", "value": "159.2±15.6", "unit": "%"},
      {"measurement": "NA level in rat prefrontal region", "setting": "[1]; [3]", "value": "124.2±10.7"},
      {"measurement": "influence on 5-HT in rat prefrontal region", "setting": "[1]; mirtazapine 3 mg/mL/kg solution over 12 hours", "value": "no influence on 5-HT was admitted"},
      {"measurement": "concentration at 6 h", "setting": "[2]", "value": "27.5 ± 3.5", "unit": "ng/mL"}
    ]}
  ]
}
